In patent US11352350B2, “IRAK degraders and uses thereof” (Kymera Therapeutics, Inc., priority 2018, dated 2022):

Tests used:
[1] = system: OCI-LY10; assay: CTG Cell Viability Assay - OCI-LY10; format: cell-based, human; conditions: Homo sapiens, OCI-Ly10, 96 h, OCI-LY10, 4 days; read-out: CTG Cell Viability Assay - OCI-LY10: Average external-IC50
Outline: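 OCI-LY10 cells exposed to 9-dose, 1:3 dilutions from 10 μM top (0.2% DMSO) for 4 days at 37° C, 5% CO2. Viability by CellTiter-Glo luminescence; IC50 from three-parameter logistic fit.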

[2] = system: TNFα; assay: Human PBMC LPS TNFα assay; format: cell-based; conditions: hPBMC, LPS stimulation, read-out: IRAK4 hPBMC LPS TNF-α inhibition: Average external-IC50
Protocol: Human PBMC LPS TNFα assay. Frozen PBMCs were thawed into RPMI with 10% FBS/1% penicillin/streptomycin and same day plated into 96 well plates at 200,000 PBMC/[…] media per well. Compound plates were prepared in DMSO with D300 cassette as 8-point dose curves in duplicate, starting dose 2 μM, 5-fold. Compounds are added 200 nL into cells for final 200 μL per well. Compound and cells were incubated at 37° C., 5% CO2 for 20 hours. After twenty hours of pretreatment with the compounds, LPS (01 1 1:B4) (Sigma #L2637) was added at 100 ng/ml final concentration and PBMCs incubated an additional five hours at 37° C., 5% CO2. Following assay completion, PBMC plates were spun down at 2000 rpm for 10 minutes. 100 uL of supernatant was carefully removed and placed into a new 96 well Costar (#3879) plate and stored at −80° C. until further analysis. Meso scale Discovery (MSD) human V-plex assays were used to measure cytokine levels. On day of cytokine analysis, supernatant samples were thawed, diluted with V-plex diluent #2, and directly to MSD plates. Assay was further completed per standard manufacturer's protocol. Cytokine data was normalized to LPS stimulated and unstimulated controls. Prism Graphpad was used to generate IC50 using 4 parameter logistic regression curve, free-fit.

[3] = molecular target: T1, IRAK4 (Homo sapiens (Human), UniProt Q9NWZ3); assay: IRAK4 MSD degradation in OCI-LY10; format: cell-based; conditions: MSD
T1 sequence (Q9NWZ3 whole entry): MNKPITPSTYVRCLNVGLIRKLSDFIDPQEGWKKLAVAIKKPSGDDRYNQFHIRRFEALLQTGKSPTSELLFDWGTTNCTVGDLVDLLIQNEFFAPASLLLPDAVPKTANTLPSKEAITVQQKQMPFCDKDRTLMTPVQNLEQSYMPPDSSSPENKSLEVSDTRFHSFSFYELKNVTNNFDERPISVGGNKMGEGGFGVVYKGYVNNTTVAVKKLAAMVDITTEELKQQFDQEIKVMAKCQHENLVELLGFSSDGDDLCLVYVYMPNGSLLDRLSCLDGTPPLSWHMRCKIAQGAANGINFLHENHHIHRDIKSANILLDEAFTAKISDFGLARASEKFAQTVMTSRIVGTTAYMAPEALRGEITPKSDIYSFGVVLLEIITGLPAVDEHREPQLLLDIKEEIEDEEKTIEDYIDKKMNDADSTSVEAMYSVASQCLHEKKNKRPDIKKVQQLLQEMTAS
Outline: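 OCI-LY10 cells treated with 8-point 1:3 dilutions (top 1 to 10 μM final) for 4 to 24 h at 37° C. Lysate IRAK4 measured by MSD sandwich immunoassay (2H9 capture, Y279 detection, SULFO-TAG anti-rabbit). DC50 from three-parameter logistic fit.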

[4] = molecular target: T1, IRAK4; assay: IRAK4 degradation in human whole blood lymphocyte - flow cytometry; format: cell-based; conditions: read-out: IRAK4 degradation in whole blood lymphocyte-Flow cytometry: Average external Abs IC50
Protocol: (§1) Human whole blood IRAK4 degradation flow assay. Whole blood was collected in heparinized tubes and plated on the same day as draw (day 0). Whole blood was aliquoted into deep well plates. Compound plates were prepared and a 10 point, 5-fold dilution was performed with a final DMSO concentration of 0.1%. Compound was added to whole blood deep well plate, sealed and incubated at 37° C., 5% CO2 for 20 hours (for 4 hour treatment, compounds were prepared and added the following day). Following the treatment incubation period (day 1), BD lyse fix (BD #558049) was added to the whole blood plate, placed on plate shaker for 30 seconds and incubated for 10 mins at room temperature. Whole blood was then spun down and washed two times with PBS/0.5% BSA, aspirated to pellet and placed into −80° C. freezer until further processing for flow. On the flow run day, whole blood plates were thawed and samples were transferred to PCR plates. The pre-perm staining cocktail (CD3 Ax488/CD8 BUV805/CD14 BUV395/CD16/56 BV711/CD19 BV785) was added to samples and incubated for 30 minutes at room temperature. Samples were washed two times and permeabilized with Methanol for 10 minutes at 4° C. Samples were washed two times and the post-perm staining cocktail (CD4 PE/IRAK4 Ax647 BD #560315) was added and incubated for 30 minutes at room temperature. Samples were washed two times with PBS/BSA and run on a BD LSRFortessa. Mononuclear cells are gated by SSCH/FSCH and single cells. Monocytes are then gated through CD14 positive gate and lymphocytes are gated through CD14 negative gate. To determine absolute DC50 and max degradation values, MFI values were normalized to DMSO max and 20 hour 10 μM min control. Twenty hour dose curves were calculated using a 4 parameter logistic regression curve fit, no constraints (Top doses were removed if hook effects were observed and the bottom was constrained to 0).

[5] = system: TNFα; assay: Human whole blood LPS TNFα assay; format: cell-based; conditions: 20 h pretreatment, LPS 5 h, read-out: IRAK4 human whole blood LPS TNFa inhibition: Average external-IC50
Protocol: Human Whole blood LPS TNFα assay. Whole blood was collected fresh and plated same day into 96 well plates at 180 μL per well. Compound plates were prepared in DMSO as 8-point dose curves in duplicate, starting dose 2 μM, 5-fold. Compounds are added 20 μL into blood for final 200 μL per well. Compound and cells were incubated at 37° C., 5% CO2 for 20 hours. After twenty hours of pretreatment with the compounds, LPS (01 1 1:B4) (Sigma #L2637) was added at 100 ng/ml final concentration and blood incubated an additional five hours at 37° C., 5% CO2. Following assay completion, whole blood plates were spun down at 2000 rpm for 15 minutes at 4° C. 50 μL of plasma was carefully removed and placed into a new 96 well Costar (#3879) plate and stored at −80° C. until further analysis. Meso scale Discovery (MSD) human V-plex assays were used to measure cytokine levels. On day of cytokine analysis, plasma samples were thawed, diluted with V-plex diluent #2, and directly to MSD plates. Assay was further completed per standard manufacturer's protocol. Cytokine data was normalized to LPS stimulated and unstimulated controls. Prism Graphpad was used to generate IC50 using 4 parameter logistic regression curve, free-fit.

[6] = molecular target: T1, IRAK4; assay: IRAK4 degradation in human whole blood monocyte - flow cytometry; format: cell-based; conditions: read-out: IRAK4 degradation in whole blood monocyte-Flow cytometry: Average external Abs IC50
Protocol: as §1

[7] = system: U2932; assay: U2932 viability, CTG; format: cell-based; conditions: Homo sapiens, U2932; MYD88 WT Lines; read-out: U2932 Viability, CTG IC50
[8] = system: OCI-LY19; assay: OCI-LY19 viability, CTG; format: cell-based; conditions: Homo sapiens, OCI-LY19; MYD88 WT Lines; read-out: OCI-LY19 Viability, CTG IC50
[9] = system: IL-6; assay: IL-6 secretion in hPBMC using R848 stimulation; format: cell-based, human; conditions: Homo sapiens, 20 h, hPBMC, R848 as stim, t = 20 h
[10] = system: SU-DHL2; assay: SU-DHL2 viability, CTG; format: cell-based; conditions: Homo sapiens, SU-DHL-2; MYD88 Mutant Lines; read-out: SU-DHL2 Viability, CTG IC50
[11] = molecular target: T1, IRAK4; assay: hPBMC IRAK4 degradation flow assay; format: cell-based; conditions: hPBMC monocyte, 20 hr, flow assay; read-out: IRAK4 degradation in hPBMC monocyte at 20 hr: Average external Abs DC50
Outline: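 Thawed human PBMCs treated with 10-point, 5-fold compound dilutions (0.1% DMSO) at 37° C. for 20 hours or 4 hours. IRAK4 measured by flow MFI in CD14+ monocytes and CD14− lymphocytes, normalized to DMSO and 10 μM 20-hour control; DC50 and max degradation from 4-parameter logistic fit.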

[12] = system: OCI-LY10; assay: OCI-LY10 viability, CTG; format: cell-based; conditions: Homo sapiens, OCI-Ly10; MYD88 Mutant Lines; read-out: OCI-LY10 Viability, CTG IC50
[13] = system: SU-DHL6; assay: SU-DHL6 viability, CTG; format: cell-based; conditions: Homo sapiens, SU-DHL-6; MYD88 WT Lines; read-out: SU-DHL6 Viability, CTG IC50
[14] = molecular target: T1, IRAK4; assay: IRAK4 degradation in OCI-LY10 (DC50); format: cell-based; conditions: read-out: IRAK4 Degradation in OCI-LY10, DC50
[15] = OCI-LY10, 4 hrs, read-out: IRAK4 MSD degradation in OCI-LY10 at 4 hrs: Average external-Abs DC50
[16] = OCI-LY10, 24 hrs, read-out: IRAK4 MSD degradation in OCI-LY10 at 24 hrs: Average external-Abs DC50

Row | SMILES | IC50 [1] [nM] | IC50 [2] [nM] | DC50 [3, 15] [nM] | DC50 [3, 16] [nM] | DC50 [4] [nM] | IC50 [5] [nM] | DC50 [6] [nM] | IC50 [6] [nM] | IC50 [7] [µM] | IC50 [8] [µM] | IC50 [9] [nM] | IC50 [10] [µM] | DC50 [11] [nM] | IC50 [12] [µM] | IC50 [13] [µM] | DC50 [14] [nM]
1 | CN(CCCOCCCc1ccc2c(c1)c1cccnc1n2C1CCC(=O)NC1=O)C[C@H]1CC[C@H](n2cc(NC(=O)c3coc(-c4ccnc(NCC5CC5)c4)n3)c(C(F)F)n2)CC1 (some centres unmarked) [I-46] | 500 to 1000 | 100 to 500 | 10 to 100 | 10 to 100 | 100 to 500 | > 1000 | 500 to 1000 |  |  |  |  |  |  |  |  | 
2 | CN(C[C@@H]1CN(CCCc2ccc3c(c2)n(C)c(=O)n3C2CCC(=O)NC2=O)CCO1)C(=O)[C@H]1CC[C@H](n2cc(NC(=O)c3coc(-c4ccnc(NCC5CC5)c4)n3)c(C(F)F)n2)CC1 (some centres unmarked) [I-17] | 100 to 500 | < 50 | < 10 |  | 50 to 100 | 500 to 1000 |  | < 50 |  |  |  |  |  |  |  | 
3 | CN(C[C@H]1CC[C@H](n2cc3cc(NC(=O)c4cccc(C(F)(F)F)n4)c(C(C)(C)O)cc3n2)CC1)C1CCN(Cc2cccc3c2n(C)c(=O)n3C2CCC(=O)NC2=O)CC1 (some centres unmarked) [I-191] | > 1000 |  | < 10 |  |  |  |  |  | > 10 | > 10 | 1 to 10 | > 10 | < 10 | > 10 | 5.6 | 4
4 | Cn1c(=O)n(C2CCC(=O)NC2=O)c2cccc(CCCOCCN3CCN(C[C@H]4CC[C@H](n5cc(NC(=O)c6coc(-c7ccnc(NCC8CC8)c7)n6)c(C(F)F)n5)CC4)CC3)c21 (some centres unmarked) [I-58] | 50 to 100 | 100 to 500 | < 10 |  | 50 to 100 | > 1000 |  | < 50 |  |  |  |  |  |  |  | 
5 | Cn1c(=O)n(C2CCC(=O)NC2=O)c2ccc(CCOCCN3CCO[C@@H](CNC[C@H]4CC[C@H](n5cc(NC(=O)c6cnn7ccc(N8CCNCC8)nc67)c(C(F)F)n5)CC4)C3)cc21 (some centres unmarked) [I-41] | > 1000 | 100 to 500 | < 10 |  | < 50 | 500 to 1000 |  | < 50 |  |  |  |  |  |  |  | 
6 | Cn1c(=O)n(C2CCC(=O)NC2=O)c2ccc(CN3CCN(CCO[C@H]4C[C@H](N(C)C(=O)[C@H]5CC[C@H](n6cc(NC(=O)c7coc(-c8ccnc(NCC9CC9)c8)n7)c(C(F)F)n6)CC5)C4)CC3)cc21 (some centres unmarked) [I-45] | < 50 | < 50 | < 10 |  | 50 to 100 | 500 to 1000 |  | < 50 |  |  |  |  |  |  |  | 
7 | Cn1c(=O)n(C2CCC(=O)NC2=O)c2ccc(CCCN3CCO[C@H](CNC[C@H]4CC[C@H](n5cc(NC(=O)c6coc(-c7ccnc(NCC8CC8)c7)n6)c(C(F)F)n5)CC4)C3)cc21 (some centres unmarked) [I-35] | < 50 | 100 to 500 | 10 to 100 |  | 50 to 100 | 500 to 1000 |  | < 50 |  |  |  |  |  |  |  | 
8 | CC[C@@H]1CC(=O)N[C@@H]1COc1ncc(C#C[C@H]2CC[C@H](CN3CCC(OCCCc4cccc5c4n(C)c(=O)n5C4CCC(=O)NC4=O)CC3)CC2)c2cc(C(N)=O)c(OC)cc12 (some centres unmarked) [I-229] | > 1000 |  | 10 to 100 | 10 to 100 |  |  |  |  | > 10 | > 10 |  | > 10 |  | 3.5 | 4.1 | 26
9 | O=C1CCC(N2C[C@H](c3ccc(C#CCN4CCO[C@@H](CNC[C@H]5CC[C@H](n6cc(NC(=O)c7coc(-c8ccnc(NCC9CC9)c8)n7)c(C(F)F)n6)CC5)C4)cc3)OC2=O)C(=O)N1 (some centres unmarked) [I-40] | < 50 | < 50 | 10 to 100 |  | 100 to 500 | 100 to 500 |  | < 50 |  |  |  |  |  |  |  | 
